Laboratory results as given in patent US6737383B1, “Herbicidal oxadiazolidines” (priority 1999, dated 2004).

Legend:
velvetleaf = test: Test B pre/postemergence velvetleaf; assay type: in vivo, Abutilon theophrasti; conditions: for Velvetleaf plant response rating (0 to 10 scale): 0 is no effect
Procedure, shortened: (§1)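 Response is a visual 0-to-10 score relative to untreated plants, where 0 means no effect and 10 means complete control, taken twelve to sixteen days after application. Treatments went onto soil at planting and onto foliage of 1- to 4-leaf plants, using a surfactant-containing non-phytotoxic solvent.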

rice = test: Test B flood test rice; assay type: in vivo, Oryza sativa
Procedure, shortened: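 Flood test on plants grown to the 2-leaf stage; treated plants kept in greenhouse twelve to sixteen days, then visually rated against controls on a 0 (no effect) to 10 (complete control) scale.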

crabgrass = test: Test B pre/postemergence crabgrass; assay type: in vivo, Digitaria sanguinalis; conditions: for Crabgrass plant response rating (0 to 10 scale): 0 is no effect
Procedure, shortened: as §1

corn = test: Test B pre/postemergence corn; assay type: in vivo, Zea mays; conditions: for Corn plant response rating (0 to 10 scale): 0 is no effect
Procedure, shortened: as §1

[1] = Postemergence, Rate 125 g/ha, scale of 0 to 10 where 0 is no effect and 10 is complete control
[2] = Preemergence, Rate 62 g/ha, scale 0 to 10 (0 no effect, 10 complete control)
[3] = Preemergence, Rate 125 g/ha, 10 is complete control
[4] = Preemergence, Rate 250 g/ha, scale 0 to 10, 0 is no effect, 10 is complete control
[5] = Preemergence, Rate 500 g/ha, scale 0 to 10 (0 no effect, 10 complete control)
[6] = Rate 62 g/ha, Postemergence, scale of 0 to 10 where 0 is no effect and 10 is complete control
[7] = Rate 250 g/ha, Postemergence, scale 0 to 10, 0 is no effect, 10 is complete control
[8] = Rate 500 g/ha, Postemergence, scale 0 to 10, 0 no effect, 10 complete control
[9] = Postemergence (flood test species), Rate 125 g/ha, scale of 0 to 10 where 0 is no effect and 10 is complete control
[10] = Rate 62 g/ha, Postemergence section, flood test species, scale of 0 to 10 where 0 is no effect and 10 is complete control
[11] = Rate 250 g/ha, Postemergence (flood test), scale 0 to 10, 0 is no effect, 10 is complete control
[12] = Rate 500 g/ha, headed Pre-emergence (flood test species), scale 0 to 10 (0 no effect, 10 complete control)
[13] = Rate 500 g/ha, Postemergence, scale 0 to 10
[14] = Rate 500 g/ha, listed under Postemergence (flood test species), scale 0 to 10
[15] = Preemergence, Rate 62 g/ha, scale of 0 to 10 where 0 is no effect and 10 is complete control
[16] = Rate 125 g/ha, Postemergence, scale 0 to 10
[17] = Rate 62 g/ha, headed Pre-emergence (flood test species), scale 0 to 10 (0 no effect, 10 complete control)
[18] = Rate 125 g/ha, Pre-emergence, flood test species, scale 0 to 10 where 0 is no effect and 10 is complete control
[19] = Rate 250 g/ha, Pre-emergence, flood-test species, scale 0 to 10, 0 is no effect, 10 is complete control
[20] = Preemergence, Rate 500 g/ha, scale of 0 to 10 where 0 is no effect and 10 is complete control

Compound	Velvetleaf plant response rating (velvetleaf; [1])	Velvetleaf plant response rating (velvetleaf; [2])	Velvetleaf plant response rating (0 to 10 scale) (velvetleaf; [3])	Velvetleaf plant response rating (velvetleaf; [4])	Velvetleaf plant response rating (velvetleaf; [5])	Velvetleaf plant response rating (velvetleaf; [6])	Plant response rating, Velvetleaf (velvetleaf; [7])	Rice plant response rating (rice; [9])	Rice plant response rating (rice; [10])	Plant response rating, Rice (rice; [12])	Crabgrass plant response rating (0 to 10 scale) (crabgrass; [3])	Crabgrass plant response rating (crabgrass; [4])	Crabgrass plant response rating (crabgrass; [5])	Crabgrass plant response rating (crabgrass; [6])	Corn plant response rating (0 to 10 scale) (corn; [3])	Corn plant response rating (corn; [4])	Corn plant response rating (corn; [5])	Corn plant response rating (corn; [6])	Corn plant response rating (corn; [13])	Crabgrass plant response rating (crabgrass; [13])	further results
CC(C)N(C(=O)n1oc(=O)n(-c2ccnn2C)c1=O)c1ccc(F)cc1 [Compound 124]	0	0	0	0	0	0	0	0	0	0	0	0	0	0	0	0	0	0			Velvetleaf plant response rating (velvetleaf; [8]): 0; Plant response rating, Rice (rice; [11]): 0; Rice plant response rating (rice; Rate 250 g/ha, headed Pre-emergence (flood test species), scale 0 to 10 (0 no effect, 10 complete control)): 0; Rice plant response rating (rice; Rate 500 g/ha, listed under Postemergence (flood test species), scale 0 to 10, 0 no effect, 10 complete control): 0; Rice plant response rating (rice; Rate 1000 g/ha, Pre-emergence (as headed), scale 0 to 10): 0; Rice plant response rating (rice; Rate 2000 g/ha, Pre-emergence (as headed), scale 0 to 10): 0; Crabgrass plant response rating (crabgrass; [1]): 0; Crabgrass plant response rating (crabgrass; [2]): 0; Plant response rating, Crabgrass (crabgrass; [7]): 0; Crabgrass plant response rating (crabgrass; [8]): 0; Corn plant response rating (corn; [1]): 0; Corn plant response rating (corn; [2]): 0; Plant response rating, Corn (corn; [7]): 0; Corn plant response rating (corn; [8]): 0
CC(C)c1noc(C(C)C)c1-n1c(=O)on(C(=O)N(c2ccc(F)cc2)C(C)C)c1=O [Compound 135]	0	0	0	0	0	0	0	0	0		0	0	4	0	0	0	0	0	0		Velvetleaf plant response rating (velvetleaf; [13]): 0; Plant response rating, Rice (rice; [11]): 0; Rice plant response rating (rice; [14]): 0; Crabgrass plant response rating (crabgrass; [1]): 0; Crabgrass plant response rating (crabgrass; [2]): 0; Plant response rating, Crabgrass (crabgrass; [7]): 0; Corn plant response rating (corn; [1]): 0; Corn plant response rating (corn; [2]): 0; Plant response rating, Corn (corn; [7]): 0
CC(C)N(C(=O)n1oc(=O)n(Cc2ccccc2Cl)c1=O)c1ccc(F)cc1 [Compound 140]	0	0	0	0	0	0	0	0	0		6	5	10	0	0	0	0	0	0	9	Velvetleaf plant response rating (velvetleaf; [13]): 2; Plant response rating, Rice (rice; [11]): 2; Rice plant response rating (rice; [14]): 4; Crabgrass plant response rating (crabgrass; [1]): 1; Crabgrass plant response rating (crabgrass; [2]): 4; Plant response rating, Crabgrass (crabgrass; [7]): 9; Corn plant response rating (corn; [1]): 0; Corn plant response rating (corn; [2]): 0; Plant response rating, Corn (corn; [7]): 0
COc1nc(OC)nc(N(C(=O)n2oc(=O)n(-c3ccccc3C)c2=O)C(C)C)n1 [Compound 181]				0	0					0	0	0	0	0	0	0	0	0	0	0	Velvetleaf plant response rating (velvetleaf; [15]): 0; Velvetleaf plant response rating (velvetleaf; [16]): 0; Plant response rating (0 to 10; 0 is no effect, 10 is complete control), Velvetleaf (velvetleaf; Rate 250 g/ha, Postemergence): 0; Velvetleaf plant response rating (velvetleaf; [13]): 0; Rice plant response rating (rice; [17]): 0; Rice plant response rating (rice; [18]): 0; Rice plant response rating (rice; [19]): 0; Crabgrass plant response rating (crabgrass; [15]): 0; Crabgrass plant response rating (crabgrass; [16]): 0; Plant response rating (0 to 10; 0 is no effect, 10 is complete control), Crabgrass (crabgrass; Rate 250 g/ha, Postemergence): 0; Corn plant response rating (corn; [15]): 0; Corn plant response rating (corn; [16]): 0; Plant response rating (0 to 10; 0 is no effect, 10 is complete control), Corn (corn; Rate 250 g/ha, Postemergence): 0
Cc1ccccc1-n1c(=O)on(C(=O)N(c2ccc(Cl)cc2Cl)C(C)C)c1=O [Compound 185]				0	0					0	6	7	9	0	0	0	0	0	0	1	Velvetleaf plant response rating (velvetleaf; [15]): 0; Velvetleaf plant response rating (velvetleaf; [16]): 0; Plant response rating (0 to 10; 0 is no effect, 10 is complete control), Velvetleaf (velvetleaf; Rate 250 g/ha, Postemergence): 0; Rice plant response rating (rice; [17]): 0; Rice plant response rating (rice; [18]): 0; Rice plant response rating (rice; [19]): 0; Crabgrass plant response rating (crabgrass; [15]): 2; Crabgrass plant response rating (crabgrass; [16]): 1; Corn plant response rating (corn; [15]): 0; Corn plant response rating (corn; [16]): 0; Plant response rating (0 to 10; 0 is no effect, 10 is complete control), Corn (corn; Rate 250 g/ha, Postemergence): 0
CSc1ccc(N(C(=O)n2oc(=O)n(-c3ccccc3C)c2=O)C(C)C)cc1 [Compound 205]				0		0				0	0	1		0	0	0		0	0	1	Velvetleaf plant response rating (velvetleaf; [15]): 0; Plant response rating, Velvetleaf (velvetleaf; [20]): 0; Velvetleaf plant response rating (velvetleaf; [16]): 0; Plant response rating (0 to 10; 0 is no effect, 10 is complete control), Velvetleaf (velvetleaf; Rate 250 g/ha, Postemergence): 0; Rice plant response rating (rice; [17]): 0; Rice plant response rating (rice; [18]): 0; Rice plant response rating (rice; [19]): 0; Crabgrass plant response rating (crabgrass; [15]): 0; Plant response rating, Crabgrass (crabgrass; [20]): 8; Crabgrass plant response rating (crabgrass; [16]): 0; Plant response rating (0 to 10; 0 is no effect, 10 is complete control), Crabgrass (crabgrass; Rate 250 g/ha, Postemergence): 1; Corn plant response rating (corn; [15]): 0; Plant response rating, Corn (corn; [20]): 0; Corn plant response rating (corn; [16]): 0; Plant response rating (0 to 10; 0 is no effect, 10 is complete control), Corn (corn; Rate 250 g/ha, Postemergence): 0
